Tests used:
CA IX = biological target: T1, CA IX (Homo sapiens, UniProt Q16790, C174S); test: stopped-flow CO2 hydration; type: biochemical; conditions: 8.5 mM CO2, 20 mM HEPES-Na pH 7.5, 20 mM Na2SO4, 25 °C, 0.0025% DDM, 0.5 nM enzyme; Cheng-Prusoff; read-out: In vitro inhibition / Ki (CA IX)
T1 construct: gene CA9; extracellular part, PG and CA domains, residues 38-391, C174S; expressed in HEK 293 cells and purified
Excerpt: stopped-flow CO2 hydration on CA IX

CA II = biological target: T2, CA II (Homo sapiens, UniProt P00918); test: stopped-flow CO2 hydration; type: biochemical; conditions: 8.5 mM CO2, 20 mM HEPES-Na pH 7.5, 20 mM Na2SO4, 25 °C, 2.5 nM enzyme; Cheng-Prusoff; read-out: In vitro inhibition / Ki (CA II)
T2 construct: gene CA2; recombinant, expressed in E. coli and purified
Excerpt: stopped-flow CO2 hydration on CA II

Substance: 1-H2NSO2(CH2)5-1,2-closo-C2B10H11 [5a]
- Ki (CA IX): 0.0148 ± 0.00198 µM
- Ki (CA II): 1.3 ± 0.122 µM

Substance: 1-H2NSO2(CH2)6–1,2-closo-C2B10H11 [6a]
- Ki (CA IX): 0.0447 ± 0.00486 µM
- Ki (CA II): 0.821 ± 0.0707 µM

Substance: [7-H2NSO2-(CH2)5–7,8-nido-C2B9H11]K [5b^−]
- Ki (CA IX): 0.0106 ± 0.00137 µM
- Ki (CA II): 0.299 ± 0.026 µM

Substance: [7-H2NSO2-(CH2)6–7,8-nido-C2B9H11]K [6b^−]
- Ki (CA IX): 0.0293 ± 0.00739 µM
- Ki (CA II): 0.0295 ± 0.00332 µM
